Measured values published in US20070207952A1, “Long Acting Biologically Active Conjugates” (priority 2003, published 2007).
Where a SMILES comes first, the peptide text is derived from it. [ ]: non-standard residue; d: D form. The star is where a group is joined. Propanoyl(3-maleimido) = O=C1C=CC(=O)N1CCC(=O)*; Nle = CCCC[C@H](N)C(=O)O; AEEA = NCCOCCOCC(=O)O

Columns and labels:
[1] = test system: HBX2 HIV-1; assay: Antiviral cytotoxicity assay with MT4 cells, modified peptides and conjugates; assay type: cell-based; settings: HBX2 HIV-1, MT4 cells; average of 2-3 experiments
Protocol: (§1) Antiviral potency of the peptides was analyzed against HIV-1 HXB2 or NLA-3 strains using a cytotoxicity assay with MT4 cells as previously described (ref 1-3) with minor modifications. MT-4 cells (1.5×10^4/ml) were exposed to 200 50% tissue culture infective doses (TCID50) of viruses in the presence of various concentrations of test compound in 96 well microtiter plates and incubated at 37° C. for 5 days. Cytotoxicity of HIV was measured by the addition of 3-(4,5-dimethylthiazol-2-yl)-2,5-diphenytetrazolium bromide (MMI) solution to each well to a final concentration of 0.75 mg/ml, and incubation for 1 hour a 37° C. After incubation, cells were dissolved in isopropanoyrriton-X 100/HCl (1000:50:25) solution. Absorbance was monitored in a microplate reader (Spectramax, Molecular Devices) at 540 rm and 690 nm. MT-4 cells were obtained from the AIDS Research and Reference Reagent Program (ARRRP, Division of AIDS, NIAID, NIH: MT-4 from Dr. D. Richman). Cells were propagated in RPMI 1640 growth medium supplemented with 10% fetal bovine serum, 50U of penicillin and 50 μg of streptomycin per ml ([Ivitrogen, Carlsbad Calif.).

[2] = test system: HIV-1 IIIB; assay: Antiviral cytotoxicity (MTT) assay with MT4 cells, HIV-1 IIIB; assay type: cell-based; settings: MT-4 cells, 5 days, average of 2 or 3 experiments
[3] = test system: HIV NL4-3; assay: Antiviral cytotoxicity (MTT) assay with MT4 cells, HIV NL4-3; assay type: cell-based, HIV-1; settings: MT-4 cells, 5 days, average of 2 or 3 experiments
Protocol: as §1

[4] = Kilby et al 1998; cited from earlier work

Compound | IC50 [1] [nM] | IC50 [2] [nM] | IC50 [3] [nM] | half-life [4] [h]
CCCC[C@H](NC(=O)[C@H](Cc1c[nH]c2ccccc12)NC(=O)COCCOCCNC(=O)CCN1C(=O)C=CC1=O)C(=O)N[C@@H](CCC(=O)O)C(=O)N[C@@H](Cc1c[nH]c2ccccc12)C(=O)N[C@@H](CC(=O)O)C(=O)N[C@@H](CCCNC(=N)N)C(=O)N[C@@H](CCCCN)C(=O)N[C@H](C(=O)N[C@@H](CCC(=O)O)C(=O)N[C@@H](CCC(=O)O)C(=O)N[C@@H](Cc1ccc(O)cc1)C(=O)N[C@H](C(=O)N[C@@H](CCCCN)C(=O)N[C@@H](CCCCN)C(=O)N[C@H](C(=O)N[C@@H](CCCCN)C(=O)N[C@@H](CCCCN)C(=O)N[C@@H](CC(C)C)C(=O)N[C@H](C(=O)N[C@@H](CCC(=O)O)C(=O)N[C@@H](CCC(=O)O)C(=O)N[C@@H](CO)C(=O)N[C@@H](CCC(N)=O)C(=O)N[C@@H](CCC(=O)O)C(=O)N[C@@H](CCC(N)=O)C(=O)N[C@@H](CCC(N)=O)C(=O)N[C@@H](CCC(=O)O)C(=O)N[C@@H](CCCCN)C(=O)N[C@@H](CC(N)=O)C(=O)N[C@@H](CCC(=O)O)C(=O)N[C@@H](CCCCN)C(=O)N[C@@H](CCC(=O)O)C(=O)N[C@@H](CC(C)C)C(=O)N[C@@H](CCCCN)C(N)=O)[C@@H](C)CC)[C@@H](C)CC)[C@@H](C)O)[C@@H](C)CC [SPI-70038] ({Propanoyl(3-maleimido)-AEEA}-W[Nle]EWDRKIEEYTKKIKKLIEESQEQQEKNEKELK-NH2) | 2 |  |  | 
CCCC[C@H](NC(=O)[C@H](Cc1c[nH]c2ccccc12)NC(C)=O)C(=O)N[C@@H](CCC(=O)O)C(=O)N[C@@H](Cc1c[nH]c2ccccc12)C(=O)N[C@@H](CC(=O)O)C(=O)N[C@@H](CCCNC(=N)N)C(=O)N[C@@H](CCCCN)C(=O)N[C@H](C(=O)N[C@@H](CCC(=O)O)C(=O)N[C@@H](CCC(=O)O)C(=O)N[C@@H](Cc1ccc(O)cc1)C(=O)N[C@H](C(=O)N[C@@H](CCCCN)C(=O)N[C@@H](CCCCN)C(=O)N[C@H](C(=O)N[C@@H](CCCCN)C(=O)N[C@@H](CCCCN)C(=O)N[C@@H](CC(C)C)C(=O)N[C@H](C(=O)N[C@@H](CCC(=O)O)C(=O)N[C@@H](CCC(=O)O)C(=O)N[C@@H](C)C(=O)N[C@@H](CCC(N)=O)C(=O)N[C@@H](CCC(=O)O)C(=O)N[C@@H](CCC(N)=O)C(=O)N[C@@H](CCC(N)=O)C(=O)N[C@@H](CCC(=O)O)C(=O)N[C@@H](CCCCN)C(=O)N[C@@H](CC(N)=O)C(=O)N[C@@H](CCC(=O)O)C(=O)N[C@@H](CCCCN)C(=O)N[C@@H](CCC(=O)O)C(=O)N[C@@H](CC(C)C)C(=O)N[C@@H](CCCCN)C(N)=O)[C@@H](C)CC)[C@@H](C)CC)[C@@H](C)O)[C@@H](C)CC [peptide 8, Ac-WXEWDRKIEEYTKKIKKLIEEAQEQQEKNEKELK-NH2] (Ac-W[Nle]EWDRKIEEYTKKIKKLIEEAQEQQEKNEKELK-NH2) |  | 2.6 | 1.2 | 
CCCC[C@H](NC(=O)[C@H](Cc1c[nH]c2ccccc12)NC(C)=O)C(=O)N[C@@H](CCC(=O)O)C(=O)N[C@@H](Cc1c[nH]c2ccccc12)C(=O)N[C@@H](CC(=O)O)C(=O)N[C@@H](CCCNC(=N)N)C(=O)N[C@@H](CCCCN)C(=O)N[C@H](C(=O)N[C@@H](CCC(=O)O)C(=O)N[C@@H](CCC(=O)O)C(=O)N[C@@H](Cc1ccc(O)cc1)C(=O)N[C@H](C(=O)N[C@@H](CCCCN)C(=O)N[C@@H](CCCCN)C(=O)N[C@H](C(=O)N[C@@H](CCC(=O)O)C(=O)N[C@@H](CCC(=O)O)C(=O)N[C@@H](CC(C)C)C(=O)N[C@H](C(=O)N[C@@H](CCCCN)C(=O)N[C@@H](CCCCN)C(=O)N[C@@H](CO)C(=O)N[C@@H](CCC(N)=O)C(=O)N[C@@H](CCC(=O)O)C(=O)N[C@@H](CCC(N)=O)C(=O)N[C@@H](CCC(N)=O)C(=O)N[C@@H](CCC(=O)O)C(=O)N[C@@H](CCCCN)C(=O)N[C@@H](CC(N)=O)C(=O)N[C@@H](CCC(=O)O)C(=O)N[C@@H](CCCCN)C(=O)N[C@@H](CCC(=O)O)C(=O)N[C@@H](CC(C)C)C(=O)N[C@@H](CCCCN)C(N)=O)[C@@H](C)CC)[C@@H](C)CC)[C@@H](C)O)[C@@H](C)CC [peptide 9, Ac-WXEWDRKIEEYTKKIEELIKKSQEQQEKNEKELK-NH2] (Ac-W[Nle]EWDRKIEEYTKKIEELIKKSQEQQEKNEKELK-NH2) |  | 1.7 | 0.9 | 
CCCC[C@H](NC(=O)[C@H](Cc1c[nH]c2ccccc12)NC(C)=O)C(=O)N[C@@H](CCC(=O)O)C(=O)N[C@@H](Cc1c[nH]c2ccccc12)C(=O)N[C@@H](CC(=O)O)C(=O)N[C@@H](CCCNC(=N)N)C(=O)N[C@@H](CCCCN)C(=O)N[C@H](C(=O)N[C@@H](CCC(=O)O)C(=O)N[C@@H](CCC(=O)O)C(=O)N[C@@H](Cc1ccc(O)cc1)C(=O)N[C@H](C(=O)N[C@@H](CCCCN)C(=O)N[C@@H](CCCCN)C(=O)N[C@H](C(=O)N[C@@H](CCC(=O)O)C(=O)N[C@@H](CCC(=O)O)C(=O)N[C@@H](CC(C)C)C(=O)N[C@H](C(=O)N[C@@H](CCCCN)C(=O)N[C@@H](CCCCN)C(=O)N[C@@H](C)C(=O)N[C@@H](CCC(N)=O)C(=O)N[C@@H](CCC(=O)O)C(=O)N[C@@H](CCC(N)=O)C(=O)N[C@@H](CCC(N)=O)C(=O)N[C@@H](CCC(=O)O)C(=O)N[C@@H](CCCCN)C(=O)N[C@@H](CC(N)=O)C(=O)N[C@@H](CCC(=O)O)C(=O)N[C@@H](CCCCN)C(=O)N[C@@H](CCC(=O)O)C(=O)N[C@@H](CC(C)C)C(=O)N[C@@H](CCCCN)C(N)=O)[C@@H](C)CC)[C@@H](C)CC)[C@@H](C)O)[C@@H](C)CC [peptide 11, Ac-WXEWDRKIEEYTKKIEELIKKAQEQQEKNEKELK-NH2] (Ac-W[Nle]EWDRKIEEYTKKIEELIKKAQEQQEKNEKELK-NH2) |  | 2.1 | 1.1 | 
enfuvirtide |  | 4.7 | 120 | 1.8
